Experimental data: PubChem BioAssay AID602411 (Southern Research Specialized Biocontainment Screening …, 2012)

Test system: VEEV Trinidad donkey, virus titer reduction
Assay: secondary screen, VEEV Trinidad donkey strain, virus titer reduction, 10 µM (AID 602411)
Conditions: at 10 µM; stronger effect = lower value

## CN1CCN(Cc2nc3ccc([N+](=O)[O-])cc3c(=O)n2-c2ccccc2F)CC1
  log virus titer change: < -5.2

## CCN1CCN(Cc2nc3ccc([N+](=O)[O-])cc3c(=O)n2-c2ccccc2F)CC1
  log virus titer change: < -5.5
